Measurements taken from paper PMC9860313 (2022).

Legend:
[1] = test system: aptamer-F (theophylline aptamer) (RNA, aptamer) GGCGAUACCAGCCGAAAGGCCCUUGGCAGCGUC; test: fluorescence strand invasion assay; details: 10 mM NaCl, 5 mM MgCl2; 20 mM HEPES pH 7.5, 0.01% Tween-20; 37°C; inhibits invasion by BBQ-650 2'-F quencher strand (Q-invader); apparent
[2] = test system: aptamer-B (theophylline aptamer) (RNA, aptamer, 3'-terminal (A)10 spacer is DNA (positions 34-43)) GGCGAUACCAGCCGAAAGGCCCUUGGCAGCGUC; test: surface plasmon resonance; details: 150 mM NaCl, 5 mM MgCl2; 10 mM HEPES pH 7.4, 0.01-0.1% DMSO, 25°C
[3] = test system: stabilized aptamer (RNA, aptamer) GGCGAUACCAGCCGAAAGGCCCUUGGCAGCGCC; test: X-ray crystallography; details: 30 mM NaCl, 5 mM MgCl2, 5 mM HEPES pH 7.5, 0.4 mM RNA, 1 mM ligand
[4] = test system: mutant aptamer-B (U24C) (RNA, aptamer, 3'-terminal (A)10 spacer is DNA (positions 34-43)) GGCGAUACCAGCCGAAAGGCCCUCGGCAGCGUC; test: surface plasmon resonance; details: 150 mM NaCl, 5 mM MgCl2; 10 mM HEPES pH 7.4, 0.01-0.1% DMSO, 25°C; highest concentration 0.1-2.0 µM
[5] = test system: pentaloop aptamer (RNA, aptamer) GGCGAUACCAGCGAAACACGCCCUUGGCAGCGUC; test: X-ray crystallography, soaked crystal; details: 30 mM KCl, 10 mM MgCl2 (RNA refolding); Fab-RNA crystals soaked in 1.1 mM TAL2, 1 h; ligand not precisely placed
[6] = crystals from cacodylate pH 6.5, PEG 8K, MPD

Structure (SMILES)	IC50 [1]	Kd [2]	binding [3, 6]	binding [4]	binding [5]	binding ([3]; 0.2 M Ca(OAc)2 in reservoir, crystals from PEG 3350, 20°C)
COc1cc2c(O)ncnc2cc1OCC1CCN(C)CC1	1160 nM	23 nM	yes			
Cn1c(=O)c2[nH]cnc2n(C)c1=O	1990 nM	670 nM	yes	no		
COc1cc2c(O)ncnc2cc1OCCCN1CCCCC1	700 nM	9.1 nM	yes		yes	
COc1cc2ncnc(N3CCN(CCCCO)CC3)c2cc1OC	1920 nM	280 nM	yes			
Cn1c(=O)cnc2c(N)nc(=O)[nH]c21	460 nM	2 nM				yes
